Patent US20230226096A1 (Orna Therapeutics, Inc., priority 2020, published 2023)
Entries after “also recorded” stand apart in the source; their conditions may differ.

Tests used:
[1] = In vivo analysis: FLuc oRNA LNPs, whole body and ex vivo IVIS flux in mice; parameters: species or system CD-1 or c57BL/6J mice; conditions: 0.5 mg/kg RNA intravenously
Description: Female CD-1 or female c57BL/6J mice ranging from 22-25 g were dosed at 0.5 mg/kg RNA intravenously. Six hours after injection, mice were injected intraperitoneally with 200 μL of D-luciferin at 15 mg/mL concentration. 5 minutes after injection, mice were anesthetized using isoflurane, and placed inside the IVIS Spectrum In Vivo Imaging System (Perkin Elmer) with dorsal side up. Post 10 minutes injection, mice were scanned for luminescence. Mice were euthanized and organs were extracted within 25 minutes of luciferin injection to scan for luminescence in liver, spleen, kidneys, lungs, and heart. Images (FIGS. 33A-B, 34A-B, 35A-B) were analyzed using Living Images (Perkin Elmer) software. Regions of interest were drawn to obtain flux and average radiance and analyzed for biodistribution of protein expression (FIG. 32A-B).

[2] = system: splenic immune cells; test: Cre circular RNA LNPs in Cre reporter (Ai9) mice: tdTomato+ splenic immune cells; assay type: in vivo; conditions: 0.5 mg/kg RNA intravenously, 48 hr
Description: Circular RNAs encoding Cre recombinase (Cre) are encapsulated into lipid nanoparticles as previously described. Female, 6-8 week old B6.Cg-Gt(ROSA)26Sortm9(CAG-tdTomato)Hze/J (Ai9) mice were dosed with lipid nanoparticles at 0.5 mg/kg RNA intravenously. Fluorescent tdTomato protein was transcribed and translated in Ai9 mice upon Cre recombination, meaning circular RNAs have been delivered to and translated in tdTomato+ cells. After 48 hr, mice were euthanized and the spleens were harvested, processed into a single cell suspension, and stained with various fluorophore-conjugated antibodies for immunophenotyping via flow cytometry.
Ai9 mice (B6.Cg-Gt(ROSA)26Sortm9(CAG-tdTomato)Hze/J, female, 6-8 weeks, n=3 per group) were injected i.v. with 0.5 mg/kg Cre oRNA LNPs or PBS. Ai9 mice transcribe and translate the fluorescent reporter tdTomato upon Cre recombination; meaning cells which are tdTomato+ have successfully been transfected with Cre oRNA.

[3] = system: primary human T cells; test: FLuc oRNA LNP transfection of primary human activated T cells with or without ApoE3; assay type: cell-based; conditions: 200 ng RNA/well, 24-hour incubation, 4 independent donors
Description: Primary human T cells from independent donors were stimulated with aCD3/aCD28 and allowed to proliferate for 6 days in the presence of human serum and IL-2. Then, 100,000 cells were plated in a 96 well plate and LNPs containing oRNA coding for Firefly Luciferase (FLuc) were added to the cells at 200 ng RNA/well with or without Apolipoprotein E3 (ApoE3). After 24-hour incubation, luminescence was quantified using the Bright-Glo Luciferase Assay System (Promega) according to manufacturer's instructions and background luminescence from cells not treated with LNPs was subtracted. […] (See Example 70 for LNP formulation procedure, e.g., for 10a-27 (5.7A), 10a-26 (5.7A), 10a-27 (4.5D), and 10a-26 (4.5D) LNPs.)

Row | Structure (SMILES) | spleen to liver ratios [1] | proportion of splenic immune cells expressing tdTomato (transfection) [2] | Firefly luminescence [3] | proportion of splenic immune cells expressing tdTomato (transfection) ([2]; 0.5 mg/kg) | proportion of splenic immune cells expressing tdTomato (transfection) ([2]; listed as Lipid 10a-27, 0.5 mg/kg)
1 | CCCCCCCCCOC(=O)CCCCCCCN(CCO)CCCCCCCC(=O)OC(CCCCCCCC)CCCCCCCC [Lipid 15 from Table 10b] | maintaining the desired spleen to liver ratios | effective at delivering circular RNAs to many splenic immune cell subsets in mice |  |  | 
2 | CCCCCCCCC(CCCCCC)C(=O)OCCCCCCN(CCCCCCOC(=O)C(CCCCCC)CCCCCCCC)CCCn1ccnc1C (centres unmarked) [Lipid 27 from Table 10a, ((3-(2-methyl-1H-imidazol-1-yl)propyl)azanediyl)bis(hexane-6,1-diyl) bis(2-hexyldecanoate)] |  |  | generally produced higher luminescence than those containing Lipid 26 from Table 10a (10a-26) | significantly higher myeloid and T cell transfection compared with Lipid 93-S14; also recorded: effective at delivering circular RNAs to many splenic immune cell subsets in mice | transfect significantly more splenic immune cells than those made with Lipid 10a-46
